Values of other authors as cited in patent US7279279B2, “Compositions and methods for determining anti-viral drug susceptibility and resistance and anti-viral drug screening” (Monogram Biosciences, Inc., priority 1996, dated 2007).

System: HIV
Details: background statement on drug treatment of HIV; no test conditions given

Compound: Cc1cn([C@H]2C[C@H](N=[N+]=[N-])[C@@H](CO)O2)c(=O)[nH]c1=O [AZT, zidovudine]
- reduce virus replication: about 90%
